TGI data for seven compounds are collected here from PubChem BioAssay (NCI).

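All cell lines were grown in 96-well plates and treated with compound for 48 hours. At the TGI there is no net growth.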

Some test systems named below: KM12 colon; A498 renal; SNB-75 CNS; ACHN renal; IGROV1 ovarian; SF-295 CNS; RXF 393 renal; MDA-N; NCI/ADR-RES ovarian; PC-3 prostate; SK-MEL-5 melanoma; NCI-H460 lung; DU-145 prostate; HCT-116 colon; MALME-3M melanoma; MDA-MB-435; NCI-H522 lung; BT-549 breast; NCI-H226 lung; RPMI-8226 leukemia.
Holding throughout (test): growth of human tumour cells (NCI), 48 h

For `CCOC(=O)c1c[nH]cc1-c1cn(S(=O)(=O)c2ccccc2)cc1C`, the TGI is 49 µM with KM12 colon; > 10 µM in the experiment on A498 renal; 63.1 µM with SNB-75 CNS; 64.3 µM in the experiment on ACHN renal; 77.7 µM in the experiment with IGROV1 ovarian; > 100 µM in the experiment with SF-295 CNS. For the same compound, the TGI with RXF 393 renal is > 100 µM; in the experiment with MDA-N it was 48.4 µM; with NCI/ADR-RES ovarian, > 100 µM; in the experiment on PC-3 prostate, 56.3 µM; in the experiment with SK-MEL-5 melanoma, > 10 µM; in the experiment on NCI-H460 lung, 47.3 µM. Moreover, the TGI with DU-145 prostate was > 100 µM; in the experiment with HCT-116 colon it was 58.9 µM; in the experiment on MALME-3M melanoma it was 40.4 µM; in the experiment on MDA-MB-435, > 10 µM; in the experiment with NCI-H522 lung it was 46.4 µM; in the experiment on BT-549 breast, 74.8 µM.
Turning to `CC(CO)(CBr)COC(=O)c1cc(Br)c(N)c(Br)c1` (centres undefined), the TGI with KM12 colon, in the experiment with A498 renal, in the experiment with ACHN renal, in the experiment with IGROV1 ovarian, with SF-295 CNS and with MDA-N was > 100 µM throughout. Moreover, the TGI in the experiment with NCI/ADR-RES ovarian, with NCI-H226 lung, with PC-3 prostate, with SK-MEL-5 melanoma, in the experiment on DU-145 prostate and in the experiment on HCT-116 colon was > 100 µM in each case. The TGI in the experiment with MDA-MB-435, in the experiment on RPMI-8226 leukemia and with BT-549 breast was > 100 µM in each case.
Take `N#Cc1cc(N(CCCl)CCCl)c([N+](=O)[O-])cc1[N+](=O)[O-]`: the TGI in the experiment with KM12 colon, in the experiment with A498 renal, in the experiment with ACHN renal, in the experiment on IGROV1 ovarian, in the experiment with SF-295 CNS and in the experiment with MDA-N was > 100 µM throughout. Further, the TGI in the experiment on NCI/ADR-RES ovarian, in the experiment on PC-3 prostate, in the experiment on SK-MEL-5 melanoma, in the experiment on NCI-H460 lung, in the experiment on DU-145 prostate and with HCT-116 colon was > 100 µM throughout. Besides, the TGI in the experiment on MALME-3M melanoma, in the experiment with MDA-MB-435, in the experiment with NCI-H522 lung, in the experiment with RPMI-8226 leukemia and with BT-549 breast was > 100 µM throughout.
As to `O=C1C2=Cc3ccccc3OC2(O)Oc2ccc(O)cc21` (centres undefined), the TGI in the experiment with KM12 colon was > 100 µM; in the experiment with A498 renal, > 100 µM; with SNB-75 CNS it was > 100 µM; with ACHN renal it was 29.6 µM; in the experiment with IGROV1 ovarian, > 100 µM; in the experiment with SF-295 CNS, > 100 µM. Besides, the TGI in the experiment with RXF 393 renal, in the experiment on MDA-N, with NCI/ADR-RES ovarian, in the experiment with NCI-H226 lung, with PC-3 prostate and in the experiment with SK-MEL-5 melanoma was > 100 µM each time. Besides, the TGI in the experiment on DU-145 prostate, in the experiment on HCT-116 colon, in the experiment with MALME-3M melanoma, in the experiment with MDA-MB-435, with RPMI-8226 leukemia and in the experiment on BT-549 breast was > 100 µM throughout.
Turning to `Clc1ccc(C2=C(c3ccccc3)C(c3ccc(Cl)cc3)N3C(=N[C@H]4CCCC[C@@H]43)N2)cc1` (some centres undefined), the TGI is 23.5 µM in the experiment on KM12 colon; 31.1 µM in the experiment with A498 renal; 30 µM in the experiment on SNB-75 CNS; 23.2 µM in the experiment on ACHN renal; 26.6 µM in the experiment with IGROV1 ovarian; 23.8 µM in the experiment with SF-295 CNS. For the same compound, the TGI in the experiment on RXF 393 renal was 27.6 µM; in the experiment on MDA-N, 28 µM; with NCI/ADR-RES ovarian, 28.1 µM; in the experiment on NCI-H226 lung, 47.9 µM; with PC-3 prostate, 21.8 µM; in the experiment on SK-MEL-5 melanoma, 24.8 µM. For the same compound, the TGI with NCI-H460 lung was 11.1 µM; in the experiment with DU-145 prostate, 25.9 µM; with HCT-116 colon, 14.7 µM; with MALME-3M melanoma it was 34.8 µM; in the experiment on MDA-MB-435 it was 27.6 µM; in the experiment on RPMI-8226 leukemia it was 7.56 µM. The compound also gave a TGI with BT-549 breast of 28.6 µM.
In the case of `CCOC(=O)c1nnsc1NN=C(C)C`, the TGI with KM12 colon, in the experiment with A498 renal, with SNB-75 CNS, with IGROV1 ovarian, in the experiment on SF-295 CNS and in the experiment on RXF 393 renal was > 100 µM each time. Besides, the TGI in the experiment on MDA-N, in the experiment on NCI/ADR-RES ovarian, in the experiment on NCI-H226 lung, with PC-3 prostate, in the experiment with SK-MEL-5 melanoma and with NCI-H460 lung was > 100 µM throughout. Moreover, the TGI in the experiment with DU-145 prostate, in the experiment with HCT-116 colon, in the experiment on MALME-3M melanoma, in the experiment with MDA-MB-435, in the experiment with NCI-H522 lung and in the experiment with RPMI-8226 leukemia was > 100 µM in each case. Also, in the experiment on BT-549 breast, the TGI is > 100 µM.
As for `C[C@]12CC[C@H]3[C@@H](CCC4=CC(=O)CC[C@@]43C)[C@@H]1CC[C@@H]2C(=O)Nc1ccc([N+](=O)[O-])c(C(F)(F)F)c1`, the TGI was 36.4 µM in the experiment on KM12 colon; 33.6 µM in the experiment on A498 renal; 38.9 µM with ACHN renal; 43.7 µM with IGROV1 ovarian; 31.7 µM with SF-295 CNS; > 10 µM in the experiment on MDA-N. For the same compound, the TGI in the experiment with NCI/ADR-RES ovarian was determined as 38.5 µM; in the experiment on NCI-H226 lung, 39 µM; in the experiment with PC-3 prostate, 40 µM; in the experiment with SK-MEL-5 melanoma, 32.5 µM; in the experiment on NCI-H460 lung, 33.4 µM; in the experiment with DU-145 prostate, 42.3 µM. For the same compound, the TGI was 32.2 µM in the experiment with HCT-116 colon; 31.2 µM in the experiment on MALME-3M melanoma; 32.3 µM in the experiment with MDA-MB-435; 37.2 µM in the experiment with NCI-H522 lung; > 100 µM in the experiment on RPMI-8226 leukemia; 35.6 µM with BT-549 breast.
